Patent US20090182058A1, “Novel Chalcone Derivatives With Antimitotic Activity” (priority 2006, published 2009)
Blank lines part the entries; values can stand above or below the compound they belong to.

Legend:
K562 cells = assay: Cycle test: blocking in the G2/M phase evaluated by flow cytometry; assay type: cell-based, human; conditions: for G2/M inhibition in %: 24 hours, 10 μM, cells blocked in G2/M phase; for G2/M cycle blocking, dose-response (FIG. 1): concentration of the order of one micromolar
Method: THE CYCLE TEST CORRESPONDS TO THE ANALYSIS OF THE BLOCKING IN THE G2/M PHASE OF A LINE OF HUMAN LEUKEMIC CELLS AS EVALUATED BY FLOW CYTOMETRY.
The k562 cells are incubated for 24 hours in the absence or in the presence of compounds according to the invention and/or reference compounds such as vincristine. In a first phase, the compounds are used at a concentration of 10 μM, whereby dose-response type studies may be carried out secondarily. After 24 hours the cells are exposed to propidium iodide, a DNA intercalating agent, and analyzed in flow cytometry. The results are expressed as a percentage of the cells blocked in the G2/M phase of the cell cycle.

L1210 = assay: MTT test (in vitro cytotoxicity); assay type: cell-based; conditions: Mus musculus, 72 hours
Method: (§1) The MMT test is a metabolic test used for evaluating the inhibition of proliferation of tumoral lines by a compound according to the invention. Several representative tumoral lines of different tumoral types such as breast cancer, colon cancer, otorhinolaryngological tumors, lung cancer, are incubated in a 96-well plate at variable concentrations of a compound according to the invention, for 72 hours and MTT is then added for a period of 1 hour. The MTT is a substrate of mitochondrial enzymes which is degraded in insoluble formazan blue. The crystals are then re-solubilized in isopropanol-HCl 0.1N and the plates are analyzed on an ELISA plate reader. Relative survival is calculated relatively to cells which have not been exposed to the compound according to the invention. The IC50 or inhibiting concentration 50 is the concentration value of the investigated compound according to the invention which induces a 50% reduction of proliferation relatively to the control.

HNO 150 = assay: MTT test (in vitro cytotoxicity); assay type: cell-based; conditions: 72 hours
Method: as §1

SW48 = assay: MTT test (in vitro cytotoxicity); assay type: cell-based; conditions: Homo sapiens, 72 hours
Method: as §1

N2A = assay: MTT test (in vitro cytotoxicity); assay type: cell-based; conditions: Mus musculus, 72 hours
Method: as §1

K562 = assay: MTT test (in vitro cytotoxicity); assay type: cell-based; conditions: Homo sapiens, 72 hours
Method: as §1

HCT 116 = assay: MTT test (in vitro cytotoxicity); assay type: cell-based; conditions: Homo sapiens, 72 hours
Method: as §1

RL = assay: MTT test (in vitro cytotoxicity); assay type: cell-based; conditions: Homo sapiens, 72 hours
Method: as §1

Messa = assay: MTT test (in vitro cytotoxicity); assay type: cell-based; conditions: Homo sapiens, MES-SA, 72 hours
Method: as §1

MCF7 = assay: MTT test (in vitro cytotoxicity); assay type: cell-based; conditions: Homo sapiens, 72 hours
Method: as §1

CEM = assay: MTT test (in vitro cytotoxicity); assay type: cell-based; conditions: Homo sapiens, CCRF-CEM, 72 hours
Method: as §1

NIH 3T3 = assay: MTT test (in vitro cytotoxicity); assay type: cell-based; conditions: Mus musculus, NIH3T3, 72 hours
Method: as §1

SMILES: CCOc1cc(OCC)c(/C=C/C(=O)c2c(OCC)cc(OCC)cc2OCC)c(OCC)c1 [Example 10, 2,2′,4,4′,6,6′-hexaethoxychalcone]
- melting point: 160 °C

SMILES: COc1ccc(/C=C/C(=O)c2c(OC)cccc2OC)c(OC)c1OC [Example 11, 2,2′,3,4,6′-pentamethoxychalcone]
- melting point: 129 °C

SMILES: CCOc1cc(OCC)c(/C=C/C(=O)c2c(OC)cccc2OC)c(OCC)c1 [Example 8, 2′,6′-dimethoxy-2,4,6-triethoxychalcone]
- melting point: 154 °C

SMILES: COc1cc(OC)c(/C=C/C(=O)c2c(OC)cc(N)cc2OC)c(OC)c1 [Example 9, 4′-amino-2,2′,4,6,6′-pentamethoxychalcone]
- melting point: 188 °C

SMILES: COc1ccc(C(=O)/C=C/c2c(OC)cc(OC)cc2OC)c(OC)c1 [Example 3, 2,2′,4,4′,6-pentamethoxychalcone]
- melting point: 162 °C
- G2/M inhibition in % (K562 cells): 86%

SMILES: CCOc1cccc(OCC)c1C(=O)/C=C/c1c(OC)cc(OC)cc1OC [Example 7, 2′,6′-diethoxy-2,4,6-trimethoxychalcone]
- melting point: 102 °C

SMILES: COc1cc(OC)c(/C=C/C(=O)c2c(OC)cc(OC)cc2OC)c(OC)c1 [Example 2, 2,2′,4,4′,6,6′-hexamethoxychalcone]
- melting point: 150 °C
- IC50 (L1210): 8.5 µM
- IC50 (HNO 150): 10 µM
- IC50 (SW48): 0.8 µM
- IC50 (N2A): 4 µM
- IC50 (K562): 50 µM
- IC50 (HCT 116): 1 µM
- IC50 (RL): 0.9 µM
- IC50 (Messa): 2.2 µM
- IC50 (MCF7): 52 µM
- IC50 (CEM): 1.9 µM
- IC50 (NIH 3T3): 30 µM
- G2/M inhibition in % (K562 cells): 86%
- G2/M cycle blocking, dose-response (FIG. 1) (K562 cells): significant G2/M cycle blocking

SMILES: COc1cc(OC)c(/C=C/C(=O)c2c(OC)cccc2OC)c(OC)c1 [Example 1, 2,2′,4,6,6′-pentamethoxychalcone]
- IC50 (L1210): 7 µM
- IC50 (HNO 150): 1.3 µM
- IC50 (SW48): 0.25 µM
- IC50 (N2A): 2.2 µM
- IC50 (K562): 50 µM
- IC50 (HCT 116): 0.45 µM
- IC50 (RL): 0.8 µM
- IC50 (Messa): 1 µM
- IC50 (MCF7): 60 µM
- IC50 (CEM): 0.65 µM
- IC50 (NIH 3T3): 30 µM
- G2/M inhibition in % (K562 cells): 84%
- G2/M cycle blocking, dose-response (FIG. 1) (K562 cells): significant G2/M cycle blocking

SMILES: COc1cccc(OC)c1/C=C/C(=O)c1c(OC)cccc1OC [Compound A, reference compound]
- IC50 (L1210): 34 µM
- IC50 (HNO 150): 62 µM
- IC50 (SW48): 10 µM
- IC50 (N2A): 55 µM
- IC50 (K562): 80 µM
- IC50 (HCT 116): 9 µM
- IC50 (RL): 40 µM
- IC50 (Messa): 10 µM
- IC50 (MCF7): 75 µM
- IC50 (CEM): 6 µM
- IC50 (NIH 3T3): 60 µM
- G2/M inhibition in % (K562 cells): 78%
- G2/M cycle blocking, dose-response (FIG. 1) (K562 cells): no activity

The remaining lines, values ahead:

- melting point: 126 °C
SMILES: COc1cccc(OC)c1C(=O)/C=C/c1c(C)cc(C)cc1C [Example 15, 2′,6′-dimethoxy-2,4,6-trimethylchalcone]

- melting point: 143 °C
SMILES: COc1cc(OC)c(OC)cc1/C=C/C(=O)c1c(OC)cccc1OC [Example 12, 2,2′,4,5,6′-pentamethoxychalcone]

- melting point: 164 °C
SMILES: COc1cc(OC)c(C(=O)/C=C/c2c(OC)cccc2OC)c(OC)c1 [Example 18, 2,2′,4′,6,6′-pentamethoxychalcone]

- melting point: 136 °C
SMILES: COc1cc(/C=C/C(=O)c2c(OC)cccc2OC)cc(OC)c1OC [Example 13, 2′,3,4,5,6′-pentamethoxychalcone]

- melting point: 152 °C
SMILES: COc1ccc(C(=O)/C=C/c2ccc(OC)c(OC)c2OC)c(O)c1 [Example 22, 2′-hydroxy-2,3,4,4′-tetramethoxychalcone]

- melting point: 170 °C
SMILES: COc1ccc(C(=O)/C=C/c2cc(OC)c(OC)cc2OC)c(O)c1 [Example 19, 2′-hydroxy-2,4,4′,5-tetramethoxychalcone]

- melting point: 105 °C
SMILES: COc1ccc(/C=C/C(=O)c2c(OC)cc(OC)cc2OC)c(OC)c1 [Example 16, 2,2′,4,4′,6′-pentamethoxychalcone]

- melting point: 110 °C
SMILES: COc1ccc(C(=O)/C=C/c2cc(OC)c(OC)c(OC)c2)c(O)c1 [Example 21, 2′-hydroxy-3,4,4′,5-tetramethoxychalcone]

- melting point: 167 °C
SMILES: COc1ccc(C(=O)/C=C/c2c(OC)cc(OC)cc2OC)c(O)c1 [Example 20, 2′-hydroxy-2,4,4′,6-tetramethoxychalcone]

- melting point: 108 °C
SMILES: COc1cccc(OC)c1C(=O)/C=C/c1c(OC)c(F)c(OC)c(F)c1OC [Example 14, 3,5-difluoro-2,2′,4,6,6′-pentamethoxychalcone]
